Measured values reported in patent publication US10793568B2, “Hormone receptor modulators for treating metabolic conditions and disorders” (ARDELYX, INC., priority 2016, dated 2020).
Like-named read-outs stand apart in the source and are kept apart here.

Key:
[1] = biological target: human Farnesoid X receptor ligand-binding domain/Gal4 DNA binding domain chimera (Homo sapiens (Human), UniProt Q96RI1); assay: Cell-based assay of FXR activation (FXR-UAS-bla HEK 293T beta-lactamase reporter); conditions: cellular FXR beta-lactamase reporter assay; for Emax: HEK-293T, extent of activation relative to GW4064, read-out: % Efficacy; for EC50: FXR-UAS-bla HEK 293T cells, 16 h, pEC50 = -log EC50
human Farnesoid X receptor ligand-binding domain/Gal4 DNA binding domain chimera, sequence (Q96RI1 262-486, change not shown): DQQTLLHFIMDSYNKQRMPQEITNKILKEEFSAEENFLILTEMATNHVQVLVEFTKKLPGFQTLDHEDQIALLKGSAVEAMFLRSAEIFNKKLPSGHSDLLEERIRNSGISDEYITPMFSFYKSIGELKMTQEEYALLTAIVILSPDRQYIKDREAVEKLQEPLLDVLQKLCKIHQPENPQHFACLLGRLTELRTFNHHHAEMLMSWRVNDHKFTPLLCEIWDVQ
human Farnesoid X receptor ligand-binding domain/Gal4 DNA binding domain chimera, sequence (P04386 1-147 partner): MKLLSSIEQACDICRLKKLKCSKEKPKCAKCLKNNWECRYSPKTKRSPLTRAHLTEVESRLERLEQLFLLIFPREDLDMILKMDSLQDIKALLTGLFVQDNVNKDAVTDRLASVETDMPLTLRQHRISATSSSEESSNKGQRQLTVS
Procedure, shortened: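 Readout is cleavage of the CCF4 FRET substrate (409 nm excitation, blue 447 nm signal) by beta-lactamase, expressed under UAS control after a Gal4–human FXR LBD chimera is activated in HEK 293T cells. Compounds were added as 3-fold dilutions for 16 h at 37 °C in 2% charcoal-stripped FBS medium. Curves were fit to a 3-parameter logistic equation to give pEC50, with % activation relative to GW4064.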

[2] = biological target: ligand binding domain of human FXR (Homo sapiens (Human), UniProt Q96RI1); assay: FXR ligand binding assay (LanthaScreen TR-FRET, SRC2-2 peptide recruitment); conditions: for pEC50: -log EC50, concentration required to produce 50% activation; for Emax: read-out: % Efficacy
ligand binding domain of human FXR, sequence (Q96RI1 262-486): as the sequence (Q96RI1 262-486, change not shown) above

[3] = extent of activation relative to GW4064

SMILES | Emax [1] [%] | EC50 [1] [nM] | pEC50 [2] | Emax [2, 3] [%] | Emax [2] [%]
CCc1cc(C(=O)O)ccc1N1C[C@@H]2C[C@H]1C[C@H]2OCc1c(-c2c(Cl)cccc2Cl)noc1C1CC1 [Compound I-109, 4-((1S,4S,5R)-5-((5-cyclopropyl-3-(2,6-dichlorophenyl)isoxazol-4-yl)methoxy)-2-azabicyclo[2.2.1]heptan-2-yl)-3-ethylbenzoic acid] | 100 | 1.58 | 9.4 | 117 | –
O=C(O)c1ccc(N2C[C@@H]3C[C@H]2C[C@H]3OCc2c(-c3c(Cl)cccc3Cl)noc2C2CC2)c(F)c1F [Compound I-110, 4-((1S,4S,5R)-5-((5-cyclopropyl-3-(2,6-dichlorophenyl)isoxazol-4-yl)methoxy)-2-azabicyclo[2.2.1]heptan-2-yl)-2,3-difluorobenzoic acid] | 111 | 1 | 10 | 132 | –
Cc1cc(N2C[C@@H]3C[C@H]2C[C@H]3OCc2c(-c3c(Cl)cccc3Cl)noc2C2CC2)ccc1C(=O)O [Compound I-111, 4-((1S,4S,5R)-5-((5-cyclopropyl-3-(2,6-dichlorophenyl)isoxazol-4-yl)methoxy)-2-azabicyclo[2.2.1]heptan-2-yl)-2-methylbenzoic acid] | 100 | 1.26 | 9.3 | 132 | –
COc1cc(N2C[C@@H]3C[C@H]2C[C@H]3OCc2c(-c3c(Cl)cccc3Cl)noc2C2CC2)ccc1C(=O)O [Compound I-112, 4-((1S,4S,5R)-5-((5-cyclopropyl-3-(2,6-dichlorophenyl)isoxazol-4-yl)methoxy)-2-azabicyclo[2.2.1]heptan-2-yl)-2-methoxybenzoic acid] | 100 | 5.01 | 9.4 | 116 | –
Cc1cccc(Cl)c1-c1noc(C2CC2)c1CO[C@@H]1C[C@@H]2C[C@H]1CN2c1ccc(C(=O)O)cc1F [Compound I-113, 4-[(1S,4S,5R)-5-[[3-(2-chloro-6-methylphenyl)-5-cyclopropyl-1,2-oxazol-4-yl]methoxy]-2-azabicyclo[2.2.1]heptan-2-yl]-3-fluorobenzoic acid] | 101 | 0.794 | 8.8 | 126 | –
Cc1cccc(Cl)c1-c1noc(C2CC2)c1CO[C@@H]1C[C@@H]2C[C@H]1CN2c1ccc(C(=O)O)cc1 [Compound I-114, 4-[(1S,4S,5R)-5-{[3-(2-chloro-6-methylphenyl)-5-cyclopropyl-1,2-oxazol-4-yl]methoxy}-2-azabicyclo[2.2.1]heptan-2-yl]-benzoic Acid] | 103 | 2.51 | – | 124 | –
Cc1cccc(Cl)c1-c1noc(C2CC2)c1CO[C@@H]1C[C@@H]2C[C@H]1CN2c1ccc(C(=O)O)c(F)c1 [Compound I-115, 4-[(1S,4S,5R)-5-{[3-(2-chloro-6-methylphenyl)-5-cyclopropyl-1,2-oxazol-4-yl]methoxy}-2-azabicyclo[2.2.1]heptan-2-yl]-2-fluorobenzoic Acid] | 108 | 2 | 9.6 | 144 | –
Cc1cccc(C)c1-c1noc(C2CC2)c1CO[C@@H]1C[C@@H]2C[C@H]1CN2c1ccc(C(=O)O)cc1F [Compound I-116, 4-[(1S,4S,5R)-5-{[5-cyclopropyl-3-(2,6-dimethylphenyl)-1,2-oxazol-4-yl]methoxy}-2-azabicyclo[2.2.1]heptan-2-yl]-3-fluorobenzoic Acid] | 102 | 3.98 | 8.6 | 131 | –
Cc1cccc(C)c1-c1noc(C2CC2)c1CO[C@@H]1C[C@@H]2C[C@H]1CN2c1ccc(C(=O)O)cc1 [Compound I-117, 4-[(1S,4S,5R)-5-{[5-cyclopropyl-3-(2,6-dimethylphenyl)-1,2-oxazol-4-yl]methoxy}-2-azabicyclo[2.2.1]heptan-2-yl]benzoic Acid] | 100 | 7.94 | 8.2 | 113 | –
O=C(O)c1ccc(N2C[C@@H]3C[C@H]2C[C@H]3OCc2c(-c3c(F)cccc3Cl)noc2C2CC2)cc1 [Compound I-118, 4-[(1S,4S,5R)-5-{[3-(2-chloro-6-fluorophenyl)-5-cyclopropyl-1,2-oxazol-4-yl]methoxy}-2-azabicyclo[2.2.1]heptan-2-yl]benzoic Acid] | 108 | 7.94 | 8.6 | 145 | –
O=C(O)c1ccc(N2C[C@@H]3C[C@H]2C[C@H]3OCc2c(-c3c(F)cccc3Cl)noc2C2CC2)c(F)c1 [Compound I-119, 4-[(1S,4S,5R)-5-{[3-(2-chloro-6-fluorophenyl)-5-cyclopropyl-1,2-oxazol-4-yl]methoxy}-2-azabicyclo[2.2.1]heptan-2-yl]-3-fluorobenzoic Acid] | 104 | 0.631 | 8.7 | 145 | –
O=C(O)c1ccc(N2C[C@@H]3C[C@H]2C[C@H]3OCc2c(-c3ccccc3C(F)(F)F)noc2C2CC2)cc1 [Compound I-120, 4-[(1S,4S,5R)-5-({5-cyclopropyl-3-[2-(trifluoromethyl)phenyl]-1,2-oxazol-4-yl}methoxy)-2-azabicyclo[2.2.1]heptan-2-yl]benzoic Acid] | 112 | 2 | 8 | 188 | –
O=C(O)c1ccc(N2C[C@@H]3C[C@H]2C[C@H]3OCc2c(-c3ccccc3C(F)(F)F)noc2C2CC2)c(F)c1 [Compound I-121, 4-[(1S,4S,5R)-5-({5-cyclopropyl-3-[2-(trifluoromethyl)phenyl]-1,2-oxazol-4-yl}methoxy)-2-azabicyclo[2.2.1]heptan-2-yl]-3-fluorobenzoic Acid] | 107 | 1.26 | – | 174 | –
O=C(O)c1ccc(N2C[C@@H]3C[C@H]2C[C@H]3OCc2c(-c3c(Cl)cccc3Cl)noc2C2(F)CC2)cc1F [Compound I-122, 4-[(1S,4S,5R)-5-{[3-(2,6-dichlorophenyl)-5-(1-fluorocyclopropyl)-1,2-oxazol-4-yl]methoxy}-2-azabicyclo[2.2.1]heptan-2-yl]-2-fluorobenzoic Acid] | 102 | 1.58 | 9.6 | 137 | –
N#Cc1cc(N2C[C@@H]3C[C@H]2C[C@H]3OCc2c(-c3c(Cl)cccc3Cl)noc2C2(F)CC2)ccc1C(=O)O [Compound I-123, 2-cyano-4-[(1S,4S,5R)-5-{[3-(2,6-dichlorophenyl)-5-(1-fluorocyclopropyl)-1,2-oxazol-4-yl]methoxy}-2-azabicyclo[2.2.1]heptan-2-yl]benzoic Acid] | 99 | 0.501 | 8.6 | 160 | –
Cc1cccc(Cl)c1-c1noc(C2(F)CC2)c1CO[C@@H]1C[C@@H]2C[C@H]1CN2c1ccc(C(=O)O)c(F)c1 [Compound I-124, 4-[(1S,4S,5R)-5-{[3-(2-chloro-6-methylphenyl)-5-(1-fluorocyclopropyl)-1,2-oxazol-4-yl]methoxy}-2-azabicyclo[2.2.1]heptan-2-yl]-2-fluorobenzoic Acid] | 105 | 3.98 | 9.7 | – | 143
O=C(O)c1ccc(N2C[C@@H]3C[C@H]2C[C@H]3OCc2c(C3CCC4(CC3)CC4)noc2C2CC2)cc1 [Compound I-125, 4-[(1S,4S,5R)-5-[(5-cyclopropyl-3-{spiro[2.5]octan-6-yl}-1,2-oxazol-4-yl)methoxy]-2-azabicyclo[2.2.1]heptan-2-yl]benzoic Acid] | 106 | 251 | – | – | 92
O=C(O)c1ccc(N2C[C@@H]3C[C@H]2C[C@H]3OCc2c(C3CCC4(CC3)CC4)noc2C2CC2)c(F)c1 [Compound I-126, 4-[(1S,4S,5R)-5-[(5-cyclopropyl-3-{spiro[2.5]octan-6-yl}-1,2-oxazol-4-yl)methoxy]-2-azabicyclo[2.2.1]heptan-2-yl]-3-fluorobenzoic Acid] | 106 | 39.8 | – | – | 114
O=C(O)c1ccc([N+]2([O-])C[C@@H]3C[C@H]2C[C@H]3OCc2c(-c3c(Cl)cccc3Cl)noc2C2CC2)cc1 (stereo partly drawn) [Compound I-127, (1S,4S,5R)-2-(4-carboxyphenyl)-5-{[5-cyclopropyl-3-(2,6-dichlorophenyl)-1,2-oxazol-4-yl]methoxy}-2-azabicyclo[2.2.1]heptan-2-ium-2-olate] | 104 | 2.51 | 9.3 | 136 | –
O=C(O)c1ccc(N2C[C@@H]3C[C@H]2C[C@H]3OCc2c(-c3c(Cl)cccc3Cl)noc2C2CC2)cn1 [Compound I-128, 5-[(1S,4S,5R)-5-{[5-cyclopropyl-3-(2,6-dichlorophenyl)-1,2-oxazol-4-yl]methoxy}-2-azabicyclo[2.2.1]heptan-2-yl]pyridine-2-carboxylic Acid] | 93 | 10 | 7.8 | 110 | –
O=C(O)c1cnc(N2C[C@@H]3C[C@H]2C[C@H]3OCc2c(-c3c(Cl)cccc3Cl)noc2C2CC2)c(F)c1 [Compound I-129, 6-[(1S,4S,5R)-5-{[5-cyclopropyl-3-(2,6-dichlorophenyl)-1,2-oxazol-4-yl]methoxy}-2-azabicyclo[2.2.1]heptan-2-yl]-5-fluoropyridine-3-carboxylic Acid] | 101 | 3.98 | – | 152 | –
O=C(O)c1cnc(N2C[C@@H]3C[C@H]2C[C@H]3OCc2c(-c3c(Cl)cccc3Cl)noc2C2(F)CC2)c(F)c1 [Compound I-130, 6-[(1S,4S,5R)-5-{[3-(2,6-dichlorophenyl)-5-(1-fluorocyclopropyl)-1,2-oxazol-4-yl]methoxy}-2-azabicyclo[2.2.1]heptan-2-yl]-5-fluoropyridine-3-carboxylic Acid] | 99 | 7.94 | 8 | 152 | –
